Measurements from patent US8772504B2, “Substituted benzoxazole, benzimidazole, oxazolopyridine and imidazopyridine derivatives as gamma secretase modulators” (Janssen Pharmaceuticals, Inc., priority 2009, dated 2014).
pIC50: −log10 of the molar value.

Legend:
Aβtotal = test: Screening for γ-secretase-modulating activity, Method 1: Aβtotal sandwich ELISA on SKNBE2 cell media; assay type: cell-based; conditions: SKNBE2 cells carrying APP 695 wild type
Summary of the method: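 SKNBE2 cells expressing wild-type APP 695 were treated with compound for 18 hours. Aβtotal in the medium was measured by sandwich ELISA (6E10 capture, biotinylated 4G8 detection, fluorogenic peroxidase read-out). IC50 came from a 4-parameter fit of % inhibition with top/bottom fixed at 100/0 and Hill slope 1, or as averaged IC50 from % of untreated control.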

Aβ42 = test: In vivo efficacy Method 1: brain soluble Aβ42 by ELISA; parameters: species or system mouse; conditions: Table 4a, single oral dose, overnight fasted animals, sacrificed after 4 h, soluble fraction of brain homogenates
Summary of the method: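 Overnight-fasted rodents or APP transgenic mice given a single oral dose in 20% Captisol or 20% hydroxypropyl β-cyclodextrin and sacrificed after 4 h. Right-hemisphere homogenate high-speed supernatant used: neutralized portion for Aβtotal, Oasis HLB-purified and concentrated eluate for Aβ42, both quantified by ELISA.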

[1] = Homo sapiens, Table 3a, 18 hours, XLfit, top/bottom fixed to 100 and 0, hill slope 1
[2] = Homo sapiens, Table 3b, non-linear regression of % of control, averaged IC50 values
[3] = Table 3a, 18 hours, XLfit, top/bottom fixed to 100 and 0, hill slope 1
[4] = Table 3b, non-linear regression of % of control, averaged IC50 values

| Compound | pIC50 (Aβtotal; [1]) | pIC50 (Aβtotal; [2]) | pIC50 (Aβtotal; [3]) | pIC50 (Aβtotal; [4]) | Aβ42 (% Ctrl) _Mean (Aβ42) [% Ctrl] |
| --- | --- | --- | --- | --- | --- |
| COc1cc(Nc2cccc3c2nc(-c2ccc(F)cc2)n3C)ccc1-n1cnc(C)c1 [Compound 1] | < 6.00 | 4.87 |  |  | 57 |
| Cc1ncn(-c2ccc(Nc3cccc4c3nc(-c3ccc(F)cc3)n4C(C)C)cc2)n1.Cl.Cl [Compound 73] |  |  | < 5.52 | < 5.52 | 87 |
| Cc1ncn(-c2ccc(Nc3cccc4c3nc(-c3ccc(F)cc3)n4C(C)C)cn2)n1 [Compound 76] |  |  | < 5.52 | < 5.00 | 86 |
| COc1cc(Nc2nccc3c2nc(-c2ccc(F)cc2)n3C)ccc1-n1cnc(C)n1 [Compound 92] |  |  | < 5.00 | < 5.00 | 60 |
| COc1cc(Nc2cc(C(C)C)nc3c2nc(-c2ccc(F)cc2)n3C)ccc1-n1cnc(C)n1 [Compound 110] | < 5.52 | 5.93 |  |  |  |
| COc1cc(-c2nc3c(Nc4ccc(-n5cnc(C)n5)c(OC)c4)nccc3n2C)ccc1Cl [Compound 114] | < 5.52 | < 5.52 |  |  |  |
| COc1nc(Nc2cc(F)cc3c2nc(-c2ccc(F)cc2)n3C)ccc1-n1cnc(C)c1 [Compound 115] |  |  | < 5.00 |  | 97 |
| COc1cc(Nc2nc(C)cc3c2nc(-c2ccc(F)cc2)n3C)ccc1-n1cnc(C)n1 [Compound 164] |  |  |  | < 5.52 | 72 |

The next lines start with results.

| pIC50 (Aβtotal; [1]) | pIC50 (Aβtotal; [2]) | pIC50 (Aβtotal; [3]) | pIC50 (Aβtotal; [4]) | Compound | Aβ42 (% Ctrl) _Mean (Aβ42) [% Ctrl] |
| --- | --- | --- | --- | --- | --- |
| < 5.52 | < 5.52 |  |  | COc1cc(Nc2cccc3c2nc(-c2ccc(F)cc2)n3C)ccc1-n1cnc(C)n1 [Compound 4] | 64 |
| < 5.52 | < 5.52 |  |  | COc1cc(Nc2nccc3c2nc(-c2ccc(F)cc2)n3C)ccc1-n1cnc(C)c1 [Compound 8] | 46 |
| < 5.52 | < 5.52 |  |  | COc1nc(Nc2cccc3c2nc(-c2ccc(F)cc2)n3C)ccc1-n1cnc(C)c1 [Compound 15] | 31 |
|  |  | < 5.52 | < 5.52 | CCn1c(CC2CC2)nc2c(Nc3ccc(-n4cnc(C)c4)c(OC)c3)cccc21 [Compound 36] | 79 |
|  |  | < 5.52 | < 5.52 | COc1cc(Nc2cccc3c2nc(Oc2ccccc2)n3C)ccc1-n1cnc(C)c1 [Compound 61] | 89 |
|  |  | < 5.52 | < 5.52 | Cc1cn(-c2ccc(Nc3cccc4c3nc(-c3ccc(F)cc3)n4C)cc2F)cn1 [Compound 67] | 71 |
|  |  | < 5.52 | < 5.52 | COc1cc(Nc2cccc3c2nc(-c2ccc(F)cc2)n3C(C)C)ccc1-n1cnc(C)n1.Cl.Cl [Compound 75] | 67 |
|  |  |  | < 5.52 | COc1cc(Nc2nccc3c2nc(-c2ccccc2C(F)(F)F)n3C)ccc1-n1cnc(C)n1 [Compound 130] | 75 |
